Literature values, collected in US8636711B2 (priority 2010, dated 2014).

pH value (parenteral): 11-12
SMILES: NS(=O)(=O)c1cc(C(=O)O)c(NCc2ccco2)cc1Cl [furosemide]
tolerability (intravenous or subcutaneous routes): generally well-tolerated
